Measured values from PubChem BioAssay (NCI).
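How tested: cells in 96-well plates exposed to compound for 48 hours at five concentrations. TGI is the concentration that stops growth completely.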

Key:
Assay in all cases: inhibition of tumour cell growth, NCI panel, 48 h
[1] = tested on: HOP-92 NSCLC
[2] = tested on: A498 renal
[3] = tested on: A549 NSCLC
[4] = tested on: SR leukemia
[5] = tested on: EKVX NSCLC
[6] = tested on: NCI-H226 lung
[7] = tested on: CAKI-1 renal
[8] = tested on: KM12 colon
[9] = tested on: M19-MEL melanoma
[10] = tested on: 786-0 renal
[11] = tested on: OVCAR-8 ovarian
[12] = tested on: HCT-15 colon
[13] = tested on: ACHN renal
[14] = tested on: M14 melanoma
[15] = tested on: SW-620 colon
[16] = tested on: SF-295 CNS
[17] = tested on: KM20L2 colon
[18] = tested on: CCRF-CEM leukemia
[19] = tested on: SK-MEL-5 melanoma
[20] = tested on: LXFL 529 NSCLC
[21] = tested on: U251 CNS
[22] = tested on: NCI-H522 lung
[23] = tested on: UACC-62 melanoma
[24] = tested on: HOP-62 NSCLC
[25] = tested on: SF-268 CNS
[26] = tested on: SK-MEL-2 melanoma
[27] = tested on: MALME-3M melanoma
[28] = tested on: NCI-H23 lung
[29] = tested on: NCI-H460 lung
[30] = tested on: UACC-257 melanoma
[31] = tested on: HT29 colon
[32] = tested on: MOLT-4 leukemia
[33] = tested on: LOX IMVI melanoma
[34] = tested on: DLD-1 colon
[35] = tested on: RXF 393 renal
[36] = tested on: SK-MEL-28 melanoma
[37] = tested on: SNB-78 CNS
[38] = tested on: SNB-75 CNS
[39] = tested on: DMS 114 small cell lung
[40] = tested on: OVCAR-4 ovarian
[41] = tested on: RXF-631 renal
[42] = tested on: COLO 205 colon
[43] = tested on: HCT-116 colon
[44] = tested on: HL-60(TB) leukemia
[45] = tested on: DMS 273 small cell lung
[46] = tested on: SF-539 CNS
[47] = tested on: TK-10 renal
[48] = tested on: SN12C renal
[49] = tested on: OVCAR-5 ovarian
[50] = tested on: K-562 leukemia
[51] = tested on: SNB-19 CNS
[52] = tested on: UO-31 renal
[53] = tested on: IGROV1 ovarian
[54] = tested on: OVCAR-3 ovarian
[55] = tested on: SK-OV-3 ovarian
[56] = tested on: HCC-2998 colon
[57] = tested on: HOP-18 NSCLC
[58] = tested on: RPMI-8226 leukemia
[59] = tested on: XF 498 CNS

CCOC(=O)C1C(=O)C(C(=O)OCC)C(c2ccccc2)N(C)C1c1ccccc1 (stereo unspecified)
TGI [1]: > 100 µM
TGI [2]: > 100 µM
TGI [3]: > 100 µM
TGI [4]: > 100 µM
TGI [5]: > 100 µM
TGI [6]: > 100 µM
TGI [7]: > 100 µM
TGI [8]: > 100 µM
TGI [9]: > 100 µM
TGI [10]: > 100 µM
TGI [11]: > 100 µM
TGI [12]: > 100 µM
TGI [13]: > 100 µM
TGI [14]: > 100 µM
TGI [15]: > 100 µM
TGI [16]: > 100 µM
TGI [17]: > 100 µM
TGI [18]: > 100 µM
TGI [19]: > 100 µM
TGI [20]: > 100 µM
TGI [21]: > 100 µM
TGI [22]: > 100 µM
TGI [23]: > 100 µM
TGI [24]: > 100 µM
TGI [25]: > 100 µM
TGI [26]: > 100 µM
TGI [27]: > 100 µM
TGI [28]: > 100 µM
TGI [29]: > 100 µM
TGI [30]: > 100 µM
TGI [31]: > 100 µM
TGI [32]: > 100 µM
TGI [33]: > 100 µM
TGI [34]: > 100 µM
TGI [35]: > 100 µM
TGI [36]: > 100 µM
TGI [37]: > 100 µM
TGI [38]: > 100 µM
TGI [39]: > 100 µM
TGI [40]: > 100 µM
TGI [41]: > 100 µM
TGI [42]: > 100 µM
TGI [43]: > 100 µM
TGI [44]: > 100 µM
TGI [45]: > 100 µM
TGI [46]: > 100 µM
TGI [47]: > 100 µM
TGI [48]: > 100 µM
TGI [49]: > 100 µM
TGI [50]: > 100 µM
TGI [51]: > 100 µM
TGI [52]: > 100 µM
TGI [53]: > 100 µM
TGI [54]: > 100 µM
TGI [55]: > 100 µM

COc1ccc(NC(=O)C2C(=O)N(c3ccc(OC)cc3)C(=O)/C2=N\N)cc1 (stereo unspecified)
TGI [1]: > 100 µM
TGI [2]: > 100 µM
TGI [3]: > 100 µM
TGI [4]: > 100 µM
TGI [5]: > 100 µM
TGI [8]: > 100 µM
TGI [9]: > 100 µM
TGI [10]: > 100 µM
TGI [11]: > 100 µM
TGI [12]: > 100 µM
TGI [13]: > 100 µM
TGI [14]: > 100 µM
TGI [15]: > 100 µM
TGI [16]: > 100 µM
TGI [17]: > 100 µM
TGI [18]: > 100 µM
TGI [19]: > 100 µM
TGI [20]: > 100 µM
TGI [21]: > 100 µM
TGI [22]: > 100 µM
TGI [23]: > 100 µM
TGI [24]: > 100 µM
TGI [25]: > 100 µM
TGI [26]: > 100 µM
TGI [27]: > 100 µM
TGI [28]: > 100 µM
TGI [29]: > 100 µM
TGI [30]: > 100 µM
TGI [56]: > 100 µM
TGI [31]: > 100 µM
TGI [32]: > 100 µM
TGI [34]: > 100 µM
TGI [35]: > 100 µM
TGI [36]: > 100 µM
TGI [37]: > 100 µM
TGI [39]: > 100 µM
TGI [57]: > 100 µM
TGI [41]: > 100 µM
TGI [42]: > 100 µM
TGI [43]: > 100 µM
TGI [44]: > 100 µM
TGI [46]: > 100 µM
TGI [47]: > 100 µM
TGI [48]: > 100 µM
TGI [49]: > 100 µM
TGI [50]: > 100 µM
TGI [51]: > 100 µM
TGI [52]: > 100 µM
TGI [53]: > 100 µM

CCOc1cc2c[n+](C)c3c4cc(OC)c(OC)cc4ccc3c2cc1OC
TGI [1]: > 100 µM
TGI [3]: > 100 µM
TGI [4]: > 100 µM
TGI [5]: > 100 µM
TGI [6]: > 100 µM
TGI [7]: > 100 µM
TGI [58]: > 100 µM
TGI [8]: > 100 µM
TGI [9]: > 100 µM
TGI [10]: 35.1 µM
TGI [11]: 32.2 µM
TGI [12]: > 100 µM
TGI [13]: > 100 µM
TGI [14]: > 100 µM
TGI [15]: > 100 µM
TGI [16]: > 100 µM
TGI [17]: > 100 µM
TGI [18]: > 100 µM
TGI [19]: > 100 µM
TGI [20]: > 100 µM
TGI [21]: > 100 µM
TGI [22]: > 100 µM
TGI [24]: > 100 µM
TGI [25]: > 100 µM
TGI [26]: > 100 µM
TGI [27]: > 100 µM
TGI [28]: > 100 µM
TGI [29]: > 100 µM
TGI [30]: > 100 µM
TGI [56]: > 100 µM
TGI [31]: > 100 µM
TGI [32]: > 100 µM
TGI [33]: > 100 µM
TGI [34]: > 100 µM
TGI [35]: > 100 µM
TGI [36]: > 100 µM
TGI [37]: > 100 µM
TGI [38]: > 100 µM
TGI [39]: > 100 µM
TGI [57]: > 100 µM
TGI [40]: > 100 µM
TGI [41]: 40.1 µM
TGI [42]: > 100 µM
TGI [43]: > 100 µM
TGI [44]: > 100 µM
TGI [46]: > 100 µM
TGI [47]: > 100 µM
TGI [48]: > 100 µM
TGI [49]: > 100 µM
TGI [50]: > 100 µM
TGI [51]: > 100 µM
TGI [52]: > 100 µM
TGI [53]: > 100 µM
TGI [54]: > 100 µM

CC(C)C(=O)N1C(=O)O[C@@H](c2ccccc2)[C@H]1C
TGI [1]: > 100 µM
TGI [2]: > 100 µM
TGI [3]: > 100 µM
TGI [4]: > 100 µM
TGI [5]: > 100 µM
TGI [6]: > 100 µM
TGI [7]: 97.9 µM
TGI [58]: > 100 µM
TGI [8]: > 100 µM
TGI [9]: > 100 µM
TGI [10]: > 100 µM
TGI [11]: > 100 µM
TGI [12]: > 100 µM
TGI [13]: > 100 µM
TGI [14]: > 100 µM
TGI [15]: > 100 µM
TGI [16]: > 100 µM
TGI [17]: > 100 µM
TGI [18]: > 100 µM
TGI [19]: > 100 µM
TGI [20]: > 100 µM
TGI [21]: > 100 µM
TGI [22]: > 100 µM
TGI [23]: > 100 µM
TGI [24]: > 100 µM
TGI [25]: > 100 µM
TGI [26]: > 100 µM
TGI [27]: > 100 µM
TGI [28]: > 100 µM
TGI [29]: > 100 µM
TGI [30]: > 100 µM
TGI [56]: > 100 µM
TGI [31]: > 100 µM
TGI [32]: > 100 µM
TGI [33]: > 100 µM
TGI [34]: > 100 µM
TGI [35]: > 100 µM
TGI [36]: > 100 µM
TGI [37]: > 100 µM
TGI [38]: > 100 µM
TGI [39]: > 100 µM
TGI [57]: > 100 µM
TGI [40]: > 100 µM
TGI [59]: > 100 µM
TGI [42]: > 100 µM
TGI [43]: > 100 µM
TGI [44]: > 100 µM
TGI [45]: > 100 µM
TGI [46]: > 100 µM
TGI [47]: > 100 µM
TGI [48]: > 100 µM
TGI [49]: > 100 µM
TGI [50]: > 100 µM
TGI [51]: > 64.7 µM
TGI [52]: > 100 µM
TGI [53]: > 100 µM
TGI [54]: > 100 µM
TGI [55]: > 100 µM
